Values joined by “and” are separate entries in the source; they are usually repeats but may differ in a detail not shown here. Equal entries are not always repeated. Where two headings read alike, the source gives them in different places.
Columns and labels:
[1] = target: T1, human 5-HT2A (h5-HT2A) receptor (Homo sapiens, UniProt P28223); assay: FLIPR assay, human 5-HT2A receptor under agonist mode; type: cell-based; details: for RFU@10 μM: RFU=Fmax−Fmin
T1 construct: expressed in transfected cells; cultured under G418 and hygromycin B selection
T1 sequence (P28223 whole entry): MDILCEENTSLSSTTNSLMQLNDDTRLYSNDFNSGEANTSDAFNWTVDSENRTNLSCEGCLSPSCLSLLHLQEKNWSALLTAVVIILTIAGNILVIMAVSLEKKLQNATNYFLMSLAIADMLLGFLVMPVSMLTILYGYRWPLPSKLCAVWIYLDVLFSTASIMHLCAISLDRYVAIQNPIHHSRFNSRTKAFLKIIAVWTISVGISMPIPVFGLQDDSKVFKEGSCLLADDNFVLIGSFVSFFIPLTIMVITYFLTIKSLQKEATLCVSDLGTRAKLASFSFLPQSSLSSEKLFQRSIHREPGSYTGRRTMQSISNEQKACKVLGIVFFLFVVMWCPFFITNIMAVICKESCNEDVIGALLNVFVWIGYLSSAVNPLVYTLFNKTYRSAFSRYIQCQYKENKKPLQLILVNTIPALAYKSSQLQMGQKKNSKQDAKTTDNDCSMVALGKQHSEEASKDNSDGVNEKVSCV
Experimental: I. Assessment of the Effect of Exemplary Compounds of Formula I Targeting on Human 5-HT2A (h5-HT2A) Receptor Under Agonist Mode
• 1. Cells were cultured in cell culture medium (DMEM containing 10% FBS, 1×penicillin-streptomycin 300 μg/ml G418 and 100 μg/ml hygromycin B) at 37° C., 5% (v/v) CO2. • 2. One day before the assays, the cells were detached using TrypLE™ Express and cells were counted using cell counter. Only cells with >85% viability were used for the assay. • 3. 20000 cells/well were seeded in 30 μl/well culture medium to a 384-well cell plate and cells were incubated overnight at 37° C., 5% (v/v) CO2. • 4. On the assay day, 2×dye solution was prepared following the manual of the FLIPR® Calcium 6 Assay Kit: i. The dye was diluted with assay buffer (20 mM HEPES in 1× HBSS, PH7.4); ii. Probenecid was added to the final concentration of 5 mM; iii. Vortex vigorously for 1-2 minutes. • 5. Medium was removed from cell plate by flicking the cell plate on towel papers. • 6. 10 μl of assay buffer and 10 μl of 2×dye solution was added to each well of the cell plate. • 7. The cell plate was placed on plate shaker, the plate was agitated at 600 rpm for 2 minutes. The plate was incubated at 37° C. for 2 hours followed by additional 15-minute incubation at 25° C. • 8. 3×compound in assay buffer was prepared: a. Reference compounds were diluted to required concentration with DMSO. The compounds were added to a 384-well compound plate; b. Serial dilutions were performed; c. 10 mM test compounds were added to the compound plate, and 3-fold serial dilutions were performed. d. Transfer 60 nl/well of compounds from source plate to a 384-well compound plate (Corning, 3657) by using an Echo; e. Add 20 μl/well assay buffer to the compound plate; f. Mix the plate on plate shaker for 2 mins; • 9. The cell plate, compound plate and tips were put into FLIPR, 10 μl of 3× compound was transferred to the cell plate per well with FLIPR.
• i. The normalized fluorescence reading (RFU) was calculated as shown below, where Fmax and Fmin stand for maximum and minimum of calcium signal during defined time window: RFU=Fmax−Fmin. • ii. Calculate the percentage activation using following equation:
[formula] • Iii. Calculate EC50 by fitting % activation against log of compound concentrations with Hill equation using XLfit.
Exemplary compounds of Formula I were evaluated functionally using FLIPR assay for their effect on h5-HT2A receptor under agonist mode.

[2] = Liver microsomes stability, human; details: for Predicted hepatic CL: human liver microsomes; for Remaining Percentage / CLint scaled at 2 μM / half-life at 2 μM / microsomal CLint at 2 μM: human; for CLint scaled at 2 μM / half-life at 2 μM / microsomal CLint at 2 μM: pooled liver microsomes
Experimental: (§1) The objective of this study was to estimate in vitro metabolic stability of representative compounds of the application in pooled human and male mouse liver microsomes. The concentrations of parent compounds in reaction systems were evaluated by LC-MS/MS for estimating the stability in pooled human and male mouse liver microsomes. The in vitro intrinsic clearances of test compounds were determined as well.
(§2) A master solution in the “Incubation Plate” containing phosphate buffer, ultra-pure H2O, MgCl2 solution and liver microsomes was made according to Table 3. The mixture was pre-warmed at 37° C. water bath for 5 minutes.
(§3) 40 μL of 10 mM NADPH solution was added to each well. The final concentration of NADPH was 1 mM. The negative control samples were prepared by replacing NADPH with 40 μL of ultra-pure H2O. Samples were prepared in duplicate. Negative controls were prepared in singlet.
(§4) The reaction was started with the addition of 4 μL of 200 μM test compounds or control compounds to each master solution to get the final concentration of 2 μM. This study was performed in duplicate.
(§5) Aliquots of 50 μL were taken from the reaction solution at 0, 15, 30, 45 and 60 minutes. The reaction solutions were stopped by the addition of 4 volumes of cold methanol with IS (100 nM alprazolam, 200 nM imipramine, 200 nM labetalol and 2 μM ketoprofen). Samples were centrifuged at 3,220 g for 40 minutes. Aliquot of 90 μL of the supernatant was mixed with 90 μL of ultra-pure H2O and then was used for LC-MS/MS analysis.
(§6) LC/MS analysis was performed for all samples from this study using a Shimadzu liquid chromatograph separation system equipped with degasser DGU-20A5R; solvent delivery unit LC-30AD; system controller SIL-30AC; column oven CTO-30A; CTC Analytics HTC PAL System. Mass spectrometric analysis was performed using a Triple Quad™ 5500 instrument.
(§7) All calculations were carried out using Microsoft Excel. Peak areas were determined from extracted ion chromatograms. The slope value, k, was determined by linear regression of the natural logarithm of the remaining percentage of the parent drug vs. incubation time curve.
(§8) The in vitro half-life (in vitro t1/2) was determined from the slope value:
(§9) Conversion of the in vitro t1/2 (min) into the in vitro intrinsic clearance (in vitro CLint, in μL/min/mg proteins) was done using the following equation (mean of duplicate determinations): […]

[3] = Liver microsomes stability, mouse; details: for CLint scaled at 2 μM / half-life at 2 μM / microsomal CLint at 2 μM: male, microsomes; for CLint scaled at 2 μM / half-life at 2 μM / microsomal CLint at 2 μM / Remaining Percentage: mouse; for Predicted hepatic CL: mouse liver microsomes
Experimental: as §1, §2, §3, §4, §5, §6, §7, §8, §9

[4] = Liver microsomes stability, rat; details: rat; for CLint scaled at 2 μM / Predicted hepatic CL / half-life at 2 μM / microsomal CLint at 2 μM: liver microsomes

Row | Compound | RFU@10 μM ([1]; 5-HT2A (FLIPR)) | EC50 ([1]; 5-HT2A (FLIPR), read-out: EC50) | Predicted hepatic CL [2] | Remaining Percentage ([2]; With NADPH, 0 min) | Remaining Percentage ([2]; With NADPH, 30 min) | Remaining Percentage ([2]; With NADPH, 60 min) | Remaining Percentage ([2]; Without NADPH, 0 min) | Remaining Percentage ([2]; Without NADPH, 30 min) | Remaining Percentage ([2]; Without NADPH, 60 min) | CLint scaled at 2 μM [2] | half-life at 2 μM [2] | microsomal CLint at 2 μM [2] | CLint scaled at 2 μM [3] | half-life at 2 μM [3] | microsomal CLint at 2 μM [3] | Predicted hepatic CL [3] | Remaining Percentage ([3]; With NADPH, 0 min) | Remaining Percentage ([3]; With NADPH, 30 min) | Remaining Percentage ([3]; With NADPH, 60 min) | Remaining Percentage ([3]; Without NADPH, 0 min) | other results
1 | CN(C)CCC1CNc2ccccc21 (stereo not drawn) [II-2, 2-(Indolin-3-yl)-N,N-dimethylethan-1-amine] | 544 | 1230 nM | 9.09 mL/min/kg | 100.00% | 87.48% | 67.85% | 100.00% | 100.69% | 86.47% | 16.2 mL/min/kg | 107 min | 12.9 µL/min/mg | 165 mL/min/kg | 36.7 min | 37.7 µL/min/mg | 58.25 mL/min/kg | 100.00% | 57.37% | 32.23% | 100.00% | Remaining Percentage ([3]; Without NADPH, 30 min): 99.08%; Remaining Percentage ([3]; Without NADPH, 60 min): 86.24%; Remaining Percentage ([4]; With NADPH, 0 min): 100.00%; Remaining Percentage ([4]; With NADPH, 30 min): 26.32%; Remaining Percentage ([4]; With NADPH, 60 min): 10.29%; Remaining Percentage ([4]; Without NADPH, 0 min): 100.00%; Remaining Percentage ([4]; Without NADPH, 30 min): 92.41%; Remaining Percentage ([4]; Without NADPH, 60 min): 83.54%; CLint scaled at 2 μM [4]: 136 mL/min/kg; Predicted hepatic CL [4]: 39.25 mL/min/kg; half-life at 2 μM [4]: 18.3 min; microsomal CLint at 2 μM [4]: 75.8 µL/min/mg
2 | [2H]C([2H])([2H])Oc1ccc2c(c1)C(CCN(C)C)CN2 (stereo not drawn) [Compound I-11, 2-(5-(Methoxy-d3)indolin-3-yl)-N,N-dimethylethan-1-amine] | 980 | 19 nM | 12.66 mL/min/kg | 100.00% | 72.72% | 45.89% | 100.00% | 97.58% | 92.20% | 32.6 mL/min/kg | 53.4 min | 26 µL/min/mg | 334 mL/min/kg | 18.2 min | 76.3 µL/min/mg | 70.89 mL/min/kg | 100.00% | 31.50% | 10.14% | 100.00% | Remaining Percentage ([3]; Without NADPH, 30 min): 94.39%; Remaining Percentage ([3]; Without NADPH, 60 min): 80.37%; Remaining Percentage ([4]; With NADPH, 0 min): 100.00%; Remaining Percentage ([4]; With NADPH, 30 min): 22.43%; Remaining Percentage ([4]; With NADPH, 60 min): 6.59%; Remaining Percentage ([4]; Without NADPH, 0 min): 100.00%; Remaining Percentage ([4]; Without NADPH, 30 min): 102.53%; Remaining Percentage ([4]; Without NADPH, 60 min): 85.67%; CLint scaled at 2 μM [4]: 162 mL/min/kg; Predicted hepatic CL [4]: 41.20 mL/min/kg; half-life at 2 μM [4]: 15.3 min; microsomal CLint at 2 μM [4]: 90.7 µL/min/mg
3 | CN(C)CCc1c[nH]c2ccccc12 [DMT, N,N-dimethyltryptamine, reference compound] | 381 |  |  |  |  |  |  |  |  |  |  |  |  |  |  |  |  |  |  |  | EC50 ([1]; EC50, 5-HT2A (FLIPR)): 364 nM
4 | CN(C)CCc1c[nH]c2cccc(O)c12 [Psilocin, psilocin, reference compound] | 416 and 308 |  |  |  |  |  |  |  |  |  |  |  |  |  |  |  |  |  |  |  | 
5 | COc1ccc2c(c1)C(CCN(C)C)CN2C (stereo not drawn) [Compound I-3, 2-(5-Methoxy-1-methylindolin-3-yl)-N,N-dimethylethan-1-amine] | 1014 | 404 nM |  |  |  |  |  |  |  |  |  |  |  |  |  |  |  |  |  |  | 
6 | COc1cc2c(cc1OC)C(CCN(C)C)CN2 (stereo not drawn) [Compound I-33, 2-(5,6-Dimethoxyindolin-3-yl)-N,N-dimethylethan-1-amine] | 286 |  |  |  |  |  |  |  |  |  |  |  |  |  |  |  |  |  |  |  | 
7 | CN(C)CCC1CNc2ccc(F)cc21 (stereo not drawn) [Compound I-2, 2-(5-Fluoroindolin-3-yl)-N,N-dimethylethan-1-amine] | 622 | 107 nM | 1.73 mL/min/kg | 100.00% | 111.62% | 95.59% | 100.00% | 115.22% | 108.70% | 1.89 mL/min/kg | 921 min | 1.5 µL/min/mg | 163 mL/min/kg | 37.2 min | 37.3 µL/min/mg | 57.99 mL/min/kg | 100.00% | 56.32% | 32.69% | 100.00% | Remaining Percentage ([3]; Without NADPH, 30 min): 108.70%; Remaining Percentage ([3]; Without NADPH, 60 min): 97.83%; Remaining Percentage ([4]; With NADPH, 0 min): 100.00%; Remaining Percentage ([4]; With NADPH, 30 min): 14.82%; Remaining Percentage ([4]; With NADPH, 60 min): 3.66%; Remaining Percentage ([4]; Without NADPH, 0 min): 100.00%; Remaining Percentage ([4]; Without NADPH, 30 min): 106.67%; Remaining Percentage ([4]; Without NADPH, 60 min): 104.17%; CLint scaled at 2 μM [4]: 198 mL/min/kg; Predicted hepatic CL [4]: 43.15 mL/min/kg; half-life at 2 μM [4]: 12.6 min; microsomal CLint at 2 μM [4]: 110 µL/min/mg
